From PubChem BioAssay AID1259407 (Chemical Carcinogenesis Research Information System (CCRIS), 2018) come the findings set out here.

Active and inactive are the calls of the source. The rule behind the calls is not given here.

For the data set, the system named is CCRIS mutagenicity, Ames/micronucleus/aberration tests. The experiment in a line: CCRIS mutagenicity studies.
Where [1] appears, read: Test System: AMES SALMONELLA TYPHIMURIUM, Strain/Indicator: TA98, Metabolic Activation: RAT, LIVER, S-9, AROCLOR 1254, Method: STANDARD PLATE.
Setting [2] is: Test System: AMES SALMONELLA TYPHIMURIUM, Strain/Indicator: TA100, Metabolic Activation: NONE, Method: STANDARD PLATE.
Where [3] appears, read: Test System: AMES SALMONELLA TYPHIMURIUM, Strain/Indicator: TA100, Metabolic Activation: RAT, LIVER, S-9, AROCLOR 1254, Method: STANDARD PLATE.

Take `Cc1ccccn1`: the mutagenic call (Test System: AMES SALMONELLA TYPHIMURIUM, Strain/Indicator: TA97, Metabolic Activation: NONE, Method: STANDARD PLATE) was “inactive; negative”; the mutagenic call (Test System: AMES SALMONELLA TYPHIMURIUM, Strain/Indicator: TA97, Metabolic Activation: RAT, LIVER, S-9, AROCLOR 1254, Method: STANDARD PLATE) is “inactive; negative”; the mutagenic call (Test System: AMES SALMONELLA TYPHIMURIUM, Strain/Indicator: TA98, Metabolic Activation: NONE, Method: PREINCUBATION) was “inactive; negative”; the mutagenic call (Test System: AMES SALMONELLA TYPHIMURIUM, Strain/Indicator: TA98, Metabolic Activation: NONE, Method: STANDARD PLATE) was “inactive; negative”; the mutagenic call (Test System: AMES SALMONELLA TYPHIMURIUM, Strain/Indicator: TA98, Metabolic Activation: RAT LIVER S-9, PHENOBARBITAL AND BETA-NAPHTHOFLAVONE, Method: PREINCUBATION) is “inactive; negative”; the mutagenic call (Test System: AMES SALMONELLA TYPHIMURIUM, Strain/Indicator: TA98, Metabolic Activation: RAT, LIVER, S-9, AROCLOR 1254, Method: PREINCUBATION) was “inactive; negative”. The mutagenic call runs as follows: under setting [1], “inactive; negative”; (Test System: AMES SALMONELLA TYPHIMURIUM, Strain/Indicator: TA100, Metabolic Activation: NONE, Method: PREINCUBATION) “inactive; negative”; under setting [2], “inactive; negative”; (Test System: AMES SALMONELLA TYPHIMURIUM, Strain/Indicator: TA100, Metabolic Activation: RAT LIVER S-9, PHENOBARBITAL AND BETA-NAPHTHOFLAVONE, Method: PREINCUBATION) “inactive; negative”; (Test System: AMES SALMONELLA TYPHIMURIUM, Strain/Indicator: TA100, Metabolic Activation: RAT, LIVER, S-9, AROCLOR 1254, Method: PREINCUBATION) “inactive; negative”; under setting [3], “inactive; negative”. Besides, the mutagenic call (Test System: AMES SALMONELLA TYPHIMURIUM, Strain/Indicator: TA102, Metabolic Activation: NONE, Method: PREINCUBATION) was “inactive; negative”; the mutagenic call (Test System: AMES SALMONELLA TYPHIMURIUM, Strain/Indicator: TA102, Metabolic Activation: NONE, Method: STANDARD PLATE) was “inactive; negative”; the mutagenic call (Test System: AMES SALMONELLA TYPHIMURIUM, Strain/Indicator: TA102, Metabolic Activation: RAT LIVER S-9, PHENOBARBITAL AND BETA-NAPHTHOFLAVONE, Method: PREINCUBATION) was “inactive; negative”; the mutagenic call (Test System: AMES SALMONELLA TYPHIMURIUM, Strain/Indicator: TA102, Metabolic Activation: RAT, LIVER, S-9, AROCLOR 1254, Method: PREINCUBATION) is “inactive; negative”; the mutagenic call (Test System: AMES SALMONELLA TYPHIMURIUM, Strain/Indicator: TA102, Metabolic Activation: RAT, LIVER, S-9, AROCLOR 1254, Method: STANDARD PLATE) was “inactive; negative”; the mutagenic call (Test System: AMES SALMONELLA TYPHIMURIUM, Strain/Indicator: TA104, Metabolic Activation: NONE, Method: PREINCUBATION) was “inactive; negative”. Also, the mutagenic call by setting is: (Test System: AMES SALMONELLA TYPHIMURIUM, Strain/Indicator: TA104, Metabolic Activation: RAT LIVER S-9, PHENOBARBITAL AND BETA-NAPHTHOFLAVONE, Method: PREINCUBATION) “inactive; negative”; (Test System: AMES SALMONELLA TYPHIMURIUM, Strain/Indicator: TA1535, Metabolic Activation: NONE, Method: PREINCUBATION) “inactive; negative”; (Test System: AMES SALMONELLA TYPHIMURIUM, Strain/Indicator: TA1535, Metabolic Activation: RAT LIVER S-9, PHENOBARBITAL AND BETA-NAPHTHOFLAVONE, Method: PREINCUBATION) “inactive; negative”; (Test System: AMES SALMONELLA TYPHIMURIUM, Strain/Indicator: TA1537, Metabolic Activation: NONE, Method: PREINCUBATION) “inactive; negative”; (Test System: AMES SALMONELLA TYPHIMURIUM, Strain/Indicator: TA1537, Metabolic Activation: RAT LIVER S-9, PHENOBARBITAL AND BETA-NAPHTHOFLAVONE, Method: PREINCUBATION) “inactive; negative”; (Test System: E.COLI, Strain/Indicator: WP2UVRA/PKM101, Metabolic Activation: NONE, Method: PREINCUBATION) “inactive; negative”. Besides, the mutagenic call runs as follows: (Test System: E.COLI, Strain/Indicator: WP2UVRA/PKM101, Metabolic Activation: RAT LIVER S-9, PHENOBARBITAL AND BETA-NAPHTHOFLAVONE, Method: PREINCUBATION) “inactive; negative”; (Test System: E.COLI, Strain/Indicator: WP2UVRA, Metabolic Activation: NONE, Method: PREINCUBATION) “inactive; negative”; (Test System: E.COLI, Strain/Indicator: WP2UVRA, Metabolic Activation: RAT LIVER S-9, PHENOBARBITAL AND BETA-NAPHTHOFLAVONE, Method: PREINCUBATION) “inactive; negative”.
Turning to `CCS(=O)(=O)CCn1c([N+](=O)[O-])cnc1C`, the mutagenic call by setting is: under setting [1], “inactive; negative”; (Test System: AMES SALMONELLA TYPHIMURIUM, Strain/Indicator: TA100(1,8-DNP6), Metabolic Activation: NONE, Method: PREINCUBATION (AEROBIC)) “active; positive”; (Test System: AMES SALMONELLA TYPHIMURIUM, Strain/Indicator: TA100(NR), Metabolic Activation: NONE, Method: PREINCUBATION (AEROBIC)) “active; positive”; (Test System: AMES SALMONELLA TYPHIMURIUM, Strain/Indicator: TA100(NR), Metabolic Activation: NONE, Method: PREINCUBATION (ANAEROBIC)) “active; positive”; (Test System: AMES SALMONELLA TYPHIMURIUM, Strain/Indicator: TA100(NR), Metabolic Activation: RAT, LIVER, S-9, AROCLOR 1254, Method: PREINCUBATION (AEROBIC)) “active; positive”; (Test System: AMES SALMONELLA TYPHIMURIUM, Strain/Indicator: TA100(NR), Metabolic Activation: RAT, LIVER, S-9, AROCLOR 1254, Method: PREINCUBATION (ANAEROBIC)) “active; positive”. Besides, the mutagenic call runs as follows: (Test System: AMES SALMONELLA TYPHIMURIUM, Strain/Indicator: TA100(NR), Metabolic Activation: RAT, LIVER, S-9, AROCLOR 1254, Method: STANDARD PLATE) “active; positive”; (Test System: AMES SALMONELLA TYPHIMURIUM, Strain/Indicator: TA100, Metabolic Activation: NONE, Method: PREINCUBATION (AEROBIC)) “active; positive”; (Test System: AMES SALMONELLA TYPHIMURIUM, Strain/Indicator: TA100, Metabolic Activation: NONE, Method: PREINCUBATION (ANAEROBIC)) “active; positive”; under setting [2], “active; positive”; (Test System: AMES SALMONELLA TYPHIMURIUM, Strain/Indicator: TA100, Metabolic Activation: RAT, LIVER, S-9, AROCLOR 1254, Method: PREINCUBATION (AEROBIC)) “active; positive”; (Test System: AMES SALMONELLA TYPHIMURIUM, Strain/Indicator: TA100, Metabolic Activation: RAT, LIVER, S-9, AROCLOR 1254, Method: PREINCUBATION (ANAEROBIC)) “active; positive”. Also, the mutagenic call is “active; positive” under setting [3]; “active; positive” (Test System: AMES SALMONELLA TYPHIMURIUM, Strain/Indicator: UTH8414, Metabolic Activation: NONE, Method: STANDARD PLATE); “active; positive” (Test System: AMES SALMONELLA TYPHIMURIUM, Strain/Indicator: YG1029, Metabolic Activation: NONE, Method: PREINCUBATION (AEROBIC)).
Regarding `O=c1c(=O)c2cc3ccccc3c3ccc4cccc1c4c23`, the mutagenic call under setting [3] is “active; positive”.
